Source: patent publication US20230399319A1, “Acylsulfamide Compound and Pharmaceutical Use Therefor” (Japan Tobacco Inc., priority 2019, published 2023)

system: Mice expressing CAPS-related NLRP3 mutations; test: not given; conditions: strain expressing CAPS-related NLRP3 mutations; cited from earlier work

Compound	survival	systemic lethal inflammation
O=C(O)c1ccc(/C=C2/SC(=S)N(Cc3cccc(C(F)(F)F)c3)C2=O)cc1 [CY-09]	improved the survival	suppressed systemic lethal inflammation

system: MOG35-55EAE model mice; test: not given; conditions: administration after the onset; cited from earlier work

Compound	impairment of motor function
COc1ccc(Cl)cc1C(=O)NCCc1ccc(S(=O)(=O)NO)cc1 [JC-171, 5-Chloro-N-[2-(4-hydroxysulfamoyl-phenyl)-ethyl]-2-methoxy-benzamide]	inhibited the impairment of motor function

system: intra-articular urate-injected arthritis model; test: not given; conditions: cited from earlier work

Compound	arthritis
CS(=O)(=O)CCC#N [OLT1177]	suppressed arthritis

target: NLRP3 inflammasome (Homo sapiens (Human), UniProt Q96P20); test: Evaluation of NLRP3 inflammasome inhibitory activity (inhibition of IL-1β production in THP1-Null cells, LPS/Nigericin); conditions: not given
Sequence (Q96P20 whole entry): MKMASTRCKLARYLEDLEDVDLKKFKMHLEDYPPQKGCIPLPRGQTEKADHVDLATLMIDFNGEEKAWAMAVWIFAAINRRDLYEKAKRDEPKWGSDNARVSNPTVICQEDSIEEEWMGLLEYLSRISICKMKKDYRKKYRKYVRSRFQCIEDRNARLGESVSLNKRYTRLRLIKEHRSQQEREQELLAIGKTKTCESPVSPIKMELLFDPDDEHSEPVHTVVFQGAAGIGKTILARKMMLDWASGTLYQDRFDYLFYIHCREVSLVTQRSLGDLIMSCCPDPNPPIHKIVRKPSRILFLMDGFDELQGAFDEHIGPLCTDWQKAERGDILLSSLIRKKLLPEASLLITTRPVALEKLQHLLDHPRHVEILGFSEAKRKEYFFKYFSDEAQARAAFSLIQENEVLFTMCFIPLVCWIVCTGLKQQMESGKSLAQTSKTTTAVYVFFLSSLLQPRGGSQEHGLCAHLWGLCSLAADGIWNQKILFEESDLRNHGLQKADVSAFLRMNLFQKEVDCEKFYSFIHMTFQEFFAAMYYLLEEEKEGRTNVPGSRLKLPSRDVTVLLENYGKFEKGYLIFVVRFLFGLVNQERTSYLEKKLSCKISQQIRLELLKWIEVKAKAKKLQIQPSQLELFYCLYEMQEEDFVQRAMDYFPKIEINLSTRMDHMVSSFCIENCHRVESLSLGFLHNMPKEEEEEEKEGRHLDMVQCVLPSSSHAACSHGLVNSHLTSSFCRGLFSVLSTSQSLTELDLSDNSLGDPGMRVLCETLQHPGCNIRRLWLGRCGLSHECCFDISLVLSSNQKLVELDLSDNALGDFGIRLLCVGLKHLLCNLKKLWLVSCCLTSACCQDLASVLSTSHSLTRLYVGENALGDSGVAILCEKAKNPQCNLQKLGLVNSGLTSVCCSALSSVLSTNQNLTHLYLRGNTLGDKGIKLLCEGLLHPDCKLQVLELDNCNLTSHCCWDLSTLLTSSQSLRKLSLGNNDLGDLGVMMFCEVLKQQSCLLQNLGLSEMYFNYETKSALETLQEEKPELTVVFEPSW

Compound	IC50 [nM]
COC(=O)C1COCCN1S(=O)(=O)NC(=O)c1coc(Nc2c3c(c(Cl)c4c2CCC4)CCC3)n1 (racemic) [Example 72]	310
CCCCS(=O)(=O)N1CCN(S(=O)(=O)NC(=O)c2coc(Nc3cc(C(F)(F)F)ccc3C)n2)CC(OC)C1 (racemic) [Example 2-204]	29
Cc1ccc2c(c1Nc1nc(C(=O)NS(=O)(=O)N3CCC(O)C3)co1)CCC2 (racemic) [Example 30]	190
Cc1ccc(C2CC2)cc1Nc1nc(C(=O)NS(=O)(=O)N2CCC(O)C2)co1 (racemic) [Example 2-002]	160
CCC1COCCN1S(=O)(=O)NC(=O)c1coc(Nc2cc(C(C)C)ccc2C)n1 (racemic) [Example 2-082]	160
COC1COCCN(S(=O)(=O)NC(=O)c2coc(Nc3cc(C(F)F)ccc3C)n2)C1 (racemic) [Example 2-331]	59
COC1COCCN(S(=O)(=O)NC(=O)c2coc(Nc3cc(C)ccc3C(C)C)n2)C1 (racemic) [Example 2-310]	98
CCCS(=O)(=O)N1CCN(S(=O)(=O)NC(=O)c2coc(Nc3cc(C)ccc3C)n2)CC(OC)C1 (racemic) [Example 2-251]	32

same assay, conditions: IL-1β production in THP1-Null cells, PMA/LPS primed, Nigericin 7.5 μmol/L

Compound	IC50 [nM]
CC(C)NS(=O)(=O)NC(=O)c1cnc(Nc2c3c(cc4c2CCC4)CCC3)o1 [Example 7]	200
O=C(NS(=O)(=O)N1CCCOCC1)c1cnc(Nc2c3c(cc4c2CCC4)CCC3)o1 [Example 4]	81
O=C(NS(=O)(=O)N1CCCC1)c1coc(Nc2c3c(c(F)c4c2CCC4)CCC3)n1 [Example 35]	< 30
Cc1ccc(C(F)(F)F)cc1Nc1nc(C(=O)NS(=O)(=O)N2CCCC2)co1 [Example 76]	92
O=C(NS(=O)(=O)N1CCC(F)(F)C1)c1coc(Nc2c3c(c(Cl)c4c2CCC4)CCC3)n1 [Example 49]	270

same assay, conditions: inhibition of IL-1β production in THP1-Null cells

Compound	IC50 [nM]
CCOCC1CCN(S(=O)(=O)NC(=O)c2coc(Nc3cc(C(F)(F)F)ccc3C)n2)CCO1 (centres unmarked) [Example 2-301]	11
Cc1ccc(C(C)C)cc1Nc1nc(C(=O)NS(=O)(=O)N2CCCOCC2)co1 [Example 2-047]	< 30
Cc1ccc(C(F)(F)F)cc1Nc1nc(C(=O)NS(=O)(=O)NC2CCOCC2)co1 [Example 2-037]	2700
CCc1ccc(C(F)(F)F)cc1Nc1nc(C(=O)NS(=O)(=O)N(C)C)co1 [Example 2-060]	46
COC1COCCN(S(=O)(=O)NC(=O)c2coc(Nc3cc(C(F)(F)F)ccc3C)n2)C1 (single isomer, unassigned) [Example 2-219]	29
Cc1ccc(C(F)(F)F)cc1Nc1nc(C(=O)NS(=O)(=O)N2CCOC(C#N)CC2)co1 (centres unmarked) [Example 2-264]	38
COc1ccc(C(F)(F)F)cc1Nc1nc(C(=O)NS(=O)(=O)N2CCCOCC2)co1 [Example 2-137]	130
Cc1ccc(C(F)(F)F)cc1Nc1nc(C(=O)NS(=O)(=O)N2CCC(=O)N(C)CC2)co1 [Example 2-093]	59
CCCS(=O)(=O)N1CCCN(S(=O)(=O)NC(=O)c2coc(Nc3cc(C(F)(F)F)ccc3C)n2)CC1 [Example 2-100]	10
CC(C)c1ccc(C(F)F)cc1Nc1nc(C(=O)NS(=O)(=O)N2CCCOCC2)co1 [Example 2-106]	44
COCC1CCN(S(=O)(=O)NC(=O)c2coc(Nc3cc(C(C)C)ccc3C)n2)CCO1 (centres unmarked) [Example 2-295]	30
Cc1ccnc(N2CCCN(S(=O)(=O)NC(=O)c3coc(Nc4cc(C(F)(F)F)ccc4C)n3)CC2)n1 [Example 2-211]	16
Cc1ccc(C2(C)CC2)cc1Nc1nc(C(=O)NS(=O)(=O)N(C)C)co1 [Example 2-044]	60

same assay, conditions: read-out: % inhibition at 3 μM

Compound	inhibition at 3 µM [%]
Cc1cn(C(F)F)nc1Nc1nc(C(=O)NS(=O)(=O)N2CCCOCC2)co1 [Example 2-209]	33
O=C(NS(=O)(=O)N1CCCOCC1)c1coc(Nc2cc(C(F)(F)F)ccc2Cl)n1 [Example 2-136]	-1.6
